Experiments:
Clone 14 cells = assay: Osteocalcin mRNA after siRNA transfection, osteoblast differentiation; type: cell-based, murine; conditions: all tested conditions (with and without BMP2), p<0.05
Protocol: The role of Axl in osteoblast differentiation from an osteoprogenitor cell was investigated using RNA interference in the murine Clone 14 cell line. In these experiments, siRNA reagents against murine Axl were transfected into cells treated with either 0 ng/ml or 100 ng/ml BMP2. The induction of osteocalcin gene expression, an established osteoblast marker, was measured to assess osteoblast differentiation 4 days after the onset of treatment and transfection.
Clone 14 cells were seeded at 20,000 cells/well in a 96-well plate and cultured in DMEM media supplemented with 10% fetal bovine serum (FBS) and 1% L-glutamine. The following day, cells were transfected for 4 hours with siRNA at a final concentration of 20 nM using 0.5% (final) Lipofectamine2000 (Invitrogen, Carlsbad, Calif.). Cells were then cultured in DMEM supplemented with 1% FBS and 1% penicillin/streptomycin. […]
To assess the consequence of Axl knockdown on osteoblast differentiation, osteocalcin mRNA levels were monitored. […]
An additional negative control was the same non-specific, scrambled siRNA described above (NSP). Osteocalcin mRNA levels were monitored by real-time RT-PCR as above using the primers set forth in SEQ ID NO:9, SEQ ID NO:10, and SEQ ID NO:11 and shown below:
Osteocalcin mRNA levels are shown relative to those monitored in cells transfected with a scrambled, non-specific siRNA (NSP). […]

MC3T3-E1 cells = assay: Formation of mineralized nodules, Alizarin red staining; type: cell-based, murine; conditions: 20 nM siRNA, Day 17 post-transfection, vs scrambled siRNA or mock
Protocol: MC3T3-E1 cells were seeded at a density of 50,000 cells/well of a 6-well plate and cultured in Alpha media supplemented with 1% glutamine and 10% FBS. The following day the cells were transfected with 20 nM (final concentration) siRNA using 0.4% (final) Oligofectamine (Invitrogen) for 4 hours. The siRNAs used in this study include the pool of Axl siRNAs and the Cbfa1/Runx2 siRNA described above. In addition two control treatments were included: a mock transfection where no siRNA was introduced and a non-specific, scrambled siRNA (as described).
Following transfection, the cells were maintained in Alpha media supplemented with 1% glutamine, 10% FBS and 10 mM β-glycerophosphate, a cofactor necessary for mineralization, with no other osteogenic agents. […]
To determine mineralization, cells were washed in PBS, fixed in cold ethanol and stained with Alizarin red using standard protocols. Semi-quantification of the extent of mineralization was conducted by de-staining the cells in 10% Cetylpyridinium chloride in 10 mM sodium phosphate for 15 minutes at room temperature. Supernatants were removed and absorbance at 570 nm measured. Concentrations were determined by obtaining absorbance measurements of a standard curve of known dilutions of Alizarin red (range from 50-400 uM). Mineralization was visually assessed by the presence of red-stained nodules.

## Runx2/Cbfa1: siRNA against Runx2/Cbfa1, 5′-CGUGAAUGGUCAUAAUAACU-3′; negative control (listed as RNA, chemistry not given here)
Clone 14 cells
  osteoblast differentiation as monitored by osteocalcin mRNA expression: dramatically repressed
MC3T3-E1 cells
  extent of mineralization (visual, Alizarin red): dramatic reduction
